Assay results reported in PubChem BioAssay (NCI).
Several values for one entry are separate records, joined by “and”; a condition that tells them apart may be missing. Equal values may be shown once.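 1) Cells in 96-well plates. 2) Compound, 48 h, 5 concentrations. 3) Linear interpolation between surrounding doses. 4) Unreached endpoint = highest concentration. GI50 marks 50% less growth. TGI: total growth inhibition.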

test system: MDA-MB-468 breast; test: growth of human tumour cells (NCI), 48 h

First: CCc1ccccc1NC(=O)c1sc2nc3c(cc2c1N)C(=O)CCC3
Second: CC(C)S(=O)(=O)c1ccccc1Nc1nc(Nc2cccc(NC(=O)CN)c2)ncc1Cl
The GI50 of the first is 2.4-fold higher: 235 nM for the first, 99.9 nM for the second.

First: O=C(/C=C/c1cc(CN2CCOCC2)c(O)c2ncccc12)c1cc(CN2CCOCC2)c(O)c2ncccc12
Second: COc1ccc2c(c1)C(C)Cc1c(ncnc1-n1c(C)nc3ccccc31)N2C (stereo unspecified)
The GI50 of the first is 88-fold lower: 34.6 nM for the first, 3050 nM for the second.

Compared with Cn1cc(C2=C(c3cn(CCCCCN)c4ccccc34)C(=O)NC2=O)c2ccccc21, COc1cc(C2=C(c3cn(C)c4ccccc34)COC2=O)cc(OC)c1OC is 240-fold lower in GI50: 7540 nM for the first, 31.9 nM for the second.

Compared with C=C1C(=O)O[C@H]2[C@H]1CC/C(COC(=O)c1ccc(Cl)nc1)=C\CC[C@@]1(C)O[C@@H]21, C[C@]12CC[C@@H]3c4ccc(O)cc4CC[C@H]3[C@@H]1CC[C@@H]2NS(=O)(=O)c1cccc(F)c1 is 2-fold higher in GI50: 1210 nM for the first, 2420 nM for the second.

CN1CCN(c2ccc(Nc3nc(NCCCNS(=O)(=O)c4ccc(Cl)cc4)c4sccc4n3)cc2)CC1 and Cc1ccc(S(=O)(=O)NCCNc2nccc(-c3c(-c4ccc(F)cc4)nc4sccn34)n2)cc1 are within 1.5-fold of each other in GI50: 4030 nM for the first, 4200 nM for the second.

NC(N)=NCCCCCNc1noc(Cc2c[nH]c3cc(Br)ccc23)n1 and Cc1cc(N/N=C/c2nc(-c3ccc(Br)cc3)oc2C)c2cc(Br)ccc2n1 are within 1.5-fold of each other in GI50: 2010 nM for the first, 1750 nM for the second.

First: COc1ccc2ncn(-c3cc(O[C@H](C)c4ccccc4Cl)c(C(N)=O)s3)c2c1
Second: COc1cc2ncn(-c3cc(OCCc4ccccc4)c(C(N)=O)s3)c2cc1OC
The GI50 of the first is 500-fold lower: 6.67 nM for the first, 3350 nM for the second.

O=C(O)c1ccc(-n2c(=O)n(-c3cccc(C(F)(F)F)c3)c(=O)c3cc(-c4ccc(F)cc4F)ccc32)cc1 and O=C(Nc1ccc(-n2cc(-c3ccncc3)c(-c3ccc(Cl)c(O)c3)n2)cc1)Nc1ccc(Cl)c(C(F)(F)F)c1 are within 1.5-fold of each other in GI50: 2160 nM for the first, 1460 nM for the second.

Compared with CN(CCCNC(=O)Cc1ccc2ccc3cccc4ccc1c2c34)CCCNc1cc(-c2ccc3ccccc3c2)nc2ccccc12, CC(C)N=c1cc2n(-c3ccc(Cl)cc3)c3ccccc3nc-2cc1Nc1ccc(Cl)cc1 is 2.5-fold lower in GI50: 1420 nM for the first, 560 nM for the second.

First: COc1ccc(-c2oc3cc(O)c(OC)c(O)c3c(=O)c2OC)cc1O
Second: COc1cc(OC)c(S(N)(=O)=O)cc1C(=O)/C=C/c1ccc(Cl)cc1
The GI50 of the first is 4.6-fold lower: 312 nM for the first, 1450 nM for the second.

Going from O=C(Nc1ccc(Br)cc1)c1ccc(Cl)c(Cl)c1 to O=[N+]([O-])c1ccc2c(c1)C(c1ccccc1Cl)=Nc1cn[nH]c1N2, the GI50 rises from 7500 nM to 12500 nM (1.7-fold).

First: C[C@]12CCc3nc(Nc4ccccc4)sc3C1=CC[C@@H]1[C@@H]2CC[C@]2(C)/C(=N/NC(N)=S)CC[C@@H]12
Second: CC(=O)O[C@H](C[C@H](C(C)C)N(C)C(=O)[C@@H](NC(=O)[C@H]1CCCCN1C)C(C)C)c1nc(C(=O)N[C@@H](Cc2ccccc2)C[C@H](C)C(=O)O)c(CCOCc2ccccc2)s1
The GI50 of the first is higher: 1870 nM for the first, less than 1 nM for the second.

Compared with CCC(C)(C)c1ccc(OCCCCCCN2CCNCC2)cc1, COCCOc1cnc2ccn([C@H](C)c3nnc4c(F)cc(-c5cnn(C)c5)cn34)c(=O)c2c1 is higher in GI50: 1760 nM for the first, greater than 100000 nM for the second.

Compared with Nc1nc(SN=Nc2ccc(S(N)(=O)=O)cc2)c2[nH]cnc2n1, O=C(COc1ccc(/C=C2\CSc3ccccc3C2=O)cc1)Nc1nccs1 is 6.5-fold higher in GI50: 284 nM for the first, 1840 nM for the second.

Going from CCn1c(CO)nn(-c2cc(O[C@@H](C)C(F)(F)F)c(C(=O)Nc3c(F)cccc3Cl)cc2F)c1=O to COc1cc2c3c(n(CCCN4CCC[C@H]4C(N)=O)c(=O)c2cc1OC)-c1cc2c(cc1C3=O)OCO2, the GI50 falls from 3280 nM to 45.6 nM (72-fold).

Compared with NC(CS/C(Cl)=C/Cl)C(=O)O (stereo unspecified), Cc1cc[c-]cc1.Fc1c[c-]c(-c2ccccn2)c(F)c1.[Pt+2].c1ccc(P(C[PH+](c2ccccc2)c2ccccc2)c2ccccc2)cc1 is 1.9-fold lower in GI50: 2990 nM for the first, 1550 nM for the second.

Compared with CCc1ccccc1NC(=O)c1sc2nc3c(cc2c1N)C(=O)CCC3, CC(C)S(=O)(=O)c1ccccc1Nc1nc(Nc2cccc(NC(=O)CN)c2)ncc1Cl is 24-fold lower in TGI: 44700 nM for the first, 1860 nM for the second.

First: O=C(/C=C/c1cc(CN2CCOCC2)c(O)c2ncccc12)c1cc(CN2CCOCC2)c(O)c2ncccc12
Second: COc1ccc2c(c1)C(C)Cc1c(ncnc1-n1c(C)nc3ccccc31)N2C (stereo unspecified)
The TGI of the first is 30-fold lower: 683 nM for the first, 20500 nM for the second.

Compared with Cn1cc(C2=C(c3cn(CCCCCN)c4ccccc34)C(=O)NC2=O)c2ccccc21, COc1cc(C2=C(c3cn(C)c4ccccc34)COC2=O)cc(OC)c1OC is lower in TGI: greater than 25000 nM for the first, 380 nM for the second.

Going from C=C1C(=O)O[C@H]2[C@H]1CC/C(COC(=O)c1ccc(Cl)nc1)=C\CC[C@@]1(C)O[C@@H]21 to C[C@]12CC[C@@H]3c4ccc(O)cc4CC[C@H]3[C@@H]1CC[C@@H]2NS(=O)(=O)c1cccc(F)c1, the TGI rises from 3500 nM to 9250 nM (2.6-fold).

Going from CN1CCN(c2ccc(Nc3nc(NCCCNS(=O)(=O)c4ccc(Cl)cc4)c4sccc4n3)cc2)CC1 to Cc1ccc(S(=O)(=O)NCCNc2nccc(-c3c(-c4ccc(F)cc4)nc4sccn34)n2)cc1, the TGI rises from 16300 nM to greater than 100000 nM.

NC(N)=NCCCCCNc1noc(Cc2c[nH]c3cc(Br)ccc23)n1 and Cc1cc(N/N=C/c2nc(-c3ccc(Br)cc3)oc2C)c2cc(Br)ccc2n1 are within 1.5-fold of each other in TGI: 7040 nM for the first, 4850 nM for the second.

Compared with COc1ccc2ncn(-c3cc(O[C@H](C)c4ccccc4Cl)c(C(N)=O)s3)c2c1, COc1cc2ncn(-c3cc(OCCc4ccccc4)c(C(N)=O)s3)c2cc1OC is 600-fold higher in TGI: 40 nM for the first, 24200 nM for the second.

Compared with O=C(O)c1ccc(-n2c(=O)n(-c3cccc(C(F)(F)F)c3)c(=O)c3cc(-c4ccc(F)cc4F)ccc32)cc1, O=C(Nc1ccc(-n2cc(-c3ccncc3)c(-c3ccc(Cl)c(O)c3)n2)cc1)Nc1ccc(Cl)c(C(F)(F)F)c1 is 1.7-fold lower in TGI: 5940 nM for the first, 3400 nM for the second.

First: CN(CCCNC(=O)Cc1ccc2ccc3cccc4ccc1c2c34)CCCNc1cc(-c2ccc3ccccc3c2)nc2ccccc12
Second: CC(C)N=c1cc2n(-c3ccc(Cl)cc3)c3ccccc3nc-2cc1Nc1ccc(Cl)cc1
The TGI of the first is 1.6-fold higher: 2750 nM for the first, 1670 nM for the second.

COc1ccc(-c2oc3cc(O)c(OC)c(O)c3c(=O)c2OC)cc1O and COc1cc(OC)c(S(N)(=O)=O)cc1C(=O)/C=C/c1ccc(Cl)cc1 are within 1.5-fold of each other in TGI: 4140 nM for the first, 3080 nM for the second.

O=C(Nc1ccc(Br)cc1)c1ccc(Cl)c(Cl)c1 and O=[N+]([O-])c1ccc2c(c1)C(c1ccccc1Cl)=Nc1cn[nH]c1N2 cannot be ordered by TGI: greater than 100000 nM for the first, greater than 25000 nM for the second.

Going from C[C@]12CCc3nc(Nc4ccccc4)sc3C1=CC[C@@H]1[C@@H]2CC[C@]2(C)/C(=N/NC(N)=S)CC[C@@H]12 to CC(=O)O[C@H](C[C@H](C(C)C)N(C)C(=O)[C@@H](NC(=O)[C@H]1CCCCN1C)C(C)C)c1nc(C(=O)N[C@@H](Cc2ccccc2)C[C@H](C)C(=O)O)c(CCOCc2ccccc2)s1, the TGI rises from 5380 nM to greater than 10000 nM.

Going from CCC(C)(C)c1ccc(OCCCCCCN2CCNCC2)cc1 to COCCOc1cnc2ccn([C@H](C)c3nnc4c(F)cc(-c5cnn(C)c5)cn34)c(=O)c2c1, the TGI rises from 3470 nM to greater than 100000 nM.

Nc1nc(SN=Nc2ccc(S(N)(=O)=O)cc2)c2[nH]cnc2n1 and O=C(COc1ccc(/C=C2\CSc3ccccc3C2=O)cc1)Nc1nccs1 are within 1.5-fold of each other in TGI: 4110 nM for the first, 4000 nM for the second.

Going from CCn1c(CO)nn(-c2cc(O[C@@H](C)C(F)(F)F)c(C(=O)Nc3c(F)cccc3Cl)cc2F)c1=O to COc1cc2c3c(n(CCCN4CCC[C@H]4C(N)=O)c(=O)c2cc1OC)-c1cc2c(cc1C3=O)OCO2, the TGI falls from greater than 72300 nM to 316 nM.

Going from NC(CS/C(Cl)=C/Cl)C(=O)O (stereo unspecified) to Cc1cc[c-]cc1.Fc1c[c-]c(-c2ccccn2)c(F)c1.[Pt+2].c1ccc(P(C[PH+](c2ccccc2)c2ccccc2)c2ccccc2)cc1, the TGI falls from 16700 nM to 5550 nM (3-fold).

For COc1cc2c(c(OC)n1)[C@]1(O)[C@H](O)[C@H](CN(C)C)[C@@H](c3ccccc3)[C@]1(c1ccc(C#N)cc1)O2, the GI50 was < 15.7 nM and 15.8 nM.

In the case of COc1cc2c(c(OC)n1)[C@]1(O)[C@H](O)[C@H](CN(C)C)[C@@H](c3ccccc3)[C@]1(c1ccc(C#N)cc1)O2, the TGI is reported as 482 nM and 1440 nM.
